# Columns and labels:
# MOLT-4 cells = assay: Cell viability assay (CellTiter-Glo), MOLT-4; assay type: cell-based; details: Homo sapiens, 72 h, 3 days, read-out: MOLT-4 (CC50 code)
# Method in brief: (§1)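 HEK293 cells in DMEM at 2000/well, plated a day before dosing; RS4-11 and MOLT-4 in RPMI-1640 at 4000/well. Compounds diluted from 200× DMSO stocks through medium into wells, then incubated 3 days at 37 °C. Viability read by CellTiter-Glo luminescence.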
# [1] = tested on: caspase-3 and -7 activities in RS4-11 cells; assay: Caspase-3/7 activation (Caspase-Glo 3/7) in RS4-11 cells; assay type: cell-based; details: Homo sapiens, 3.5 h incubation, read-out: Cas-3/7 (EC50 code)
# Method in brief: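 RS4-11 cells exposed to varying compound concentrations for 3.5 h at 37 °C, 5% CO2, then 30 min at r.t. Caspase-Glo 3/7 reagent (luminogenic DEVD substrate) added, 30 min at r.t., luminescence read.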
# BCL-XL = BCL-XL (Homo sapiens (Human), UniProt Q07817); assay: BCL-XL TR-FRET Assay (primary PPI inhibition); assay type: binding; details: 60 min incubation; read-out: BCLxL (IC50 code, BCL-XL TR-FRET)
# Chain of BCL-XL (Q07817 whole entry): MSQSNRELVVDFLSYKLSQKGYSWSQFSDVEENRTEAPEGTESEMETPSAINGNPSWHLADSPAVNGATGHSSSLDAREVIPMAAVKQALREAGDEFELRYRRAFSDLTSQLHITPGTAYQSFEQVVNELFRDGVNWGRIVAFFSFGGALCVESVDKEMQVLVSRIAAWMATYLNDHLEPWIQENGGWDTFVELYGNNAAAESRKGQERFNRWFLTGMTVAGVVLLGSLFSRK
# Method in brief: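 TR-FRET displacement of a dye-labelled BCL-XL peptide ligand from His-tagged BCL-XL (10.5 ng) detected with a Tb-labelled anti-His donor. Incubation ran 60 min with test compound. Readout used 340 nm excitation and 620/665 nm emission with a 60 µs delay.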
# [2] = Cell viability assay (CellTiter-Glo), HEK293; assay type: cell-based; details: human, HEK293 cells, read-out: HEK293 (CC50 code)
# Method in brief: as §1
# RS4-11 cells = assay: Cell viability assay (CellTiter-Glo), RS4-11; assay type: cell-based; details: Homo sapiens, 72 h, 3 days, read-out: RS4-11 (CC50 code)
# Method in brief: as §1
# MCL-1 = MCL-1 (Homo sapiens (Human), UniProt Q07820); assay: MCL-1 TR-FRET Assay (primary PPI inhibition); assay type: binding; details: 60 min incubation; read-out: MCL1 IC50
# Chain of MCL-1 (Q07820 whole entry): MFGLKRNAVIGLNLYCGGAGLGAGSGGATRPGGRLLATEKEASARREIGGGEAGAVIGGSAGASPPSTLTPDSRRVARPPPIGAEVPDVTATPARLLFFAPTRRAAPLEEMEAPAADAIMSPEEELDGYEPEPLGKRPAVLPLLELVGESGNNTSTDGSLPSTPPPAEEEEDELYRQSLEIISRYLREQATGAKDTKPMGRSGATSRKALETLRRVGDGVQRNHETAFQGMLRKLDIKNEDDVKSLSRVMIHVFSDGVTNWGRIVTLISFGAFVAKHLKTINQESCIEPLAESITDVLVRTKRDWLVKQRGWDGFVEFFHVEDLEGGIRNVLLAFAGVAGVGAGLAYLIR
# Procedure: MCL-1 TR-FRET Assay (BPS Bioscience, #79506)
# The following assay concentrations and times were used: 10 ng MCL-1, 5 μl of 1:200 anti-His Tb-labeled donor, 5 μl of 1:200 Dye-labeled acceptor, 5 μl of 1:10 MCL-1 Peptide Ligand, and 2 μl of test compound, with 60 min incubation time. The results of the assay were read using a Clariostar (BMG Labtech) plate reader with the following parameters: TR FRET, 340ex/620 and 665em; 60 μsec Delay; and 500 μsec integration.
# BCL-2 = BCL-2 (Homo sapiens (Human), UniProt P10415); assay: BCL-2 TR-FRET Assay (primary PPI inhibition); assay type: binding; details: 60 min incubation; read-out: BCL2 (IC50 code, BCL-2 TR-FRET)
# Chain of BCL-2 (P10415 whole entry): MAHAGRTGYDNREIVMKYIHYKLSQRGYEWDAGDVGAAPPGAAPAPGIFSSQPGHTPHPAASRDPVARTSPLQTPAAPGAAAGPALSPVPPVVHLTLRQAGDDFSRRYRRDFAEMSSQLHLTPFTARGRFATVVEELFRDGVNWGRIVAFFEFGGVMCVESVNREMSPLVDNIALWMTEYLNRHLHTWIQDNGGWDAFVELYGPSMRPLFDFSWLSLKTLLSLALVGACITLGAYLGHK
# Method in brief: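 Mixture of 3 ng BCL-2, anti-His Tb donor, dye-labeled acceptor and BCL-2 peptide ligand, incubated 60 min with test compound. TR-FRET read at 340 nm excitation, 620/665 nm emission, 60 µs delay, 500 µs integration.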
Structure (SMILES),CC50 (MOLT-4 cells),EC50 [1],IC50 (BCL-XL),CC50 at 3 days [2],CC50 (RS4-11 cells),IC50 (MCL-1),IC50 (BCL-2)
"COCCNC(=O)c1ccc(CN(C(=O)c2cc(-c3cc4c(cc3C(=O)N3Cc5ccccc5C[C@H]3CN3CCOCC3)OCO4)n3c2CCCC3)c2ccc(O)cc2)cc1 [Compound 1, N-(4-hydroxyphenyl)-N-{4-[(2-methoxyethyl)carbamoyl]benzyl}-3-(6-{[(3S)-3-(morpholin-4-ylmethyl)-3,4-dihydroisoquinolin-2(1H)-yl]carbonyl}-1,3-benzodioxol-5-yl)-5,6,7,8-tetrahydroindolizine-1-carboxamide]",2000 to 10000 nM,≤ 100 nM,≤ 2000 nM,≤ 10000 nM,≤ 100 nM,> 100000 nM,≤ 5 nM
"COCCNC(=O)c1cccc(CN(C(=O)c2cc(-c3cc4c(cc3C(=O)N3Cc5ccccc5C[C@H]3CN3CCOCC3)OCO4)n3c2CCCC3)c2ccc(O)cc2)c1 [Compound 2, N-(4-hydroxyphenyl)-N-{3-[(2-methoxyethyl)carbamoyl]benzyl}-3-(6-{[(3S)-3-(morpholin-4-ylmethyl)-3,4-dihydroisoquinolin-2(1H)-yl]carbonyl}-1,3-benzodioxol-5-yl)-5,6,7,8-tetrahydroindolizine-1-carboxamide]",> 10000 nM,> 250 nM,,≤ 10000 nM,100 to 200 nM,> 100000 nM,≤ 5 nM
"CN(C)CCNC(=O)c1cccc(CN(C(=O)c2cc(-c3cc4c(cc3C(=O)N3Cc5ccccc5C[C@H]3CN3CCOCC3)OCO4)n3c2CCCC3)c2ccc(O)cc2)c1 [Compound 6, N-(3-{[2-(dimethylamino)ethyl]carbamoyl}benzyl)-N-(4-hydroxyphenyl)-3-(6-{[(3S)-3-(morpholin-4-ylmethyl)-3,4-dihydroisoquinolin-2(1H)-yl]carbonyl}-1,3-benzodioxol-5-yl)-5,6,7,8-tetrahydroindolizine-1-carboxamide]",> 10000 nM,> 250 nM,,10000 to 25000 nM,> 200 nM,> 100000 nM,≤ 5 nM
"NC(=O)c1cccc(CN(C(=O)c2cc(-c3cc4c(cc3C(=O)N3Cc5ccccc5C[C@H]3CN3CCOCC3)OCO4)n3c2CCCC3)c2ccc(O)cc2)c1 [Compound 7, N-(3-carbamoylbenzyl)-N-(4-hydroxyphenyl)-3-(6-{[(3S)-3-(morpholin-4-ylmethyl)-3,4-dihydroisoquinolin-2(1H)-yl]carbonyl}-1,3-benzodioxol-5-yl)-5,6,7,8-tetrahydroindolizine-1-carboxamide]",2000 to 10000 nM,100 to 250 nM,≤ 2000 nM,≤ 10000 nM,100 to 200 nM,> 100000 nM,≤ 5 nM
"CN(C)CCNC(=O)c1ccc(CN(C(=O)c2cc(-c3cc4c(cc3C(=O)N3Cc5ccccc5C[C@H]3CN3CCOCC3)OCO4)n3c2CCCC3)c2ccc(O)cc2)cc1 [Compound 8, N-(4-{[2-(dimethylamino)ethyl]carbamoyl}benzyl)-N-(4-hydroxyphenyl)-3-(6-{[(3S)-3-(morpholin-4-ylmethyl)-3,4-dihydroisoquinolin-2(1H)-yl]carbonyl}-1,3-benzodioxol-5-yl)-5,6,7,8-tetrahydroindolizine-1-carboxamide]",> 10000 nM,≤ 100 nM,≤ 2000 nM,> 25000 nM,≤ 100 nM,> 100000 nM,≤ 5 nM
"CN1CCN(C(=O)c2cccc(CN(C(=O)c3cc(-c4cc5c(cc4C(=O)N4Cc6ccccc6C[C@H]4CN4CCOCC4)OCO5)n4c3CCCC4)c3ccc(O)cc3)c2)CC1 [Compound 10, N-(4-hydroxyphenyl)-N-{3-[(4-methylpiperazin-1-yl)carbonyl]benzyl}-3-(6-{[(3S)-3-(morpholin-4-ylmethyl)-3,4-dihydroisoquinolin-2(1H)-yl]carbonyl}-1,3-benzodioxol-5-yl)-5,6,7,8-tetrahydroindolizine-1-carboxamide]",> 10000 nM,> 250 nM,,10000 to 25000 nM,> 200 nM,> 100000 nM,5 to 10 nM
"CN1CCN(C(=O)c2ccc(CN(C(=O)c3cc(-c4cc5c(cc4C(=O)N4Cc6ccccc6C[C@H]4CN4CCOCC4)OCO5)n4c3CCCC4)c3ccc(O)cc3)cc2)CC1 [Compound 12, N-(4-hydroxyphenyl)-N-{4-[(4-methylpiperazin-1-yl)carbonyl]benzyl}-3-(6-{[(3S)-3-(morpholin-4-ylmethyl)-3,4-dihydroisoquinolin-2(1H)-yl]carbonyl}-1,3-benzodioxol-5-yl)-5,6,7,8-tetrahydroindolizine-1-carboxamide]",> 10000 nM,≤ 100 nM,≤ 2000 nM,10000 to 25000 nM,≤ 100 nM,> 100000 nM,5 to 10 nM
"NC(=O)c1ccc(CN(C(=O)c2cc(-c3cc4c(cc3C(=O)N3Cc5ccccc5C[C@H]3CN3CCOCC3)OCO4)n3c2CCCC3)c2ccc(O)cc2)cc1 [Compound 13, N-(4-carbamoylbenzyl)-N-(4-hydroxyphenyl)-3-(6-{[(3S)-3-(morpholin-4-ylmethyl)-3,4-dihydroisoquinolin-2(1H)-yl]carbonyl}-1,3-benzodioxol-5-yl)-5,6,7,8-tetrahydroindolizine-1-carboxamide]",2000 to 10000 nM,≤ 100 nM,≤ 2000 nM,10000 to 25000 nM,≤ 100 nM,> 100000 nM,5 to 10 nM

# Reference: patent US11697650B2, “Compounds having tetrahydroindolizine-1-carboxamide as BCL-2 inhibitors” (Eil Therapeutics, Inc., priority 2021, dated 2023)
